PubChem BioAssay (NCI)
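GI50: concentration for 50% inhibition of growth. TGI: total growth inhibition.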

Legend:
Experiment in all cases: inhibition of tumour cell growth, NCI panel, 384-well format
MOLT-4 leukemia = tested on: MOLT-4 leukemia
MDA-MB-231 breast = tested on: MDA-MB-231 breast
A549 NSCLC = tested on: A549 NSCLC
HL-60(TB) leukemia = tested on: HL-60(TB) leukemia
K-562 leukemia = tested on: K-562 leukemia
SW-620 colon = tested on: SW-620 colon
OVCAR-5 ovarian = tested on: OVCAR-5 ovarian
SF-295 CNS = tested on: SF-295 CNS
MALME-3M melanoma = tested on: MALME-3M melanoma
CAKI-1 renal = tested on: CAKI-1 renal
PC-3 prostate = tested on: PC-3 prostate
HCC-2998 colon = tested on: HCC-2998 colon
NCI-H460 NSCLC = tested on: NCI-H460 NSCLC
HT29 colon = tested on: HT29 colon
SF-539 CNS = tested on: SF-539 CNS
SNB-75 CNS = tested on: SNB-75 CNS
UACC-257 melanoma = tested on: UACC-257 melanoma
TK-10 renal = tested on: TK-10 renal
SF-268 CNS = tested on: SF-268 CNS
SNB-19 CNS = tested on: SNB-19 CNS
RPMI-8226 leukemia = tested on: RPMI-8226 leukemia
NCI/ADR-RES ovarian = tested on: NCI/ADR-RES ovarian
MDA-MB-435 melanoma = tested on: MDA-MB-435 melanoma
NCI-H322M lung = tested on: NCI-H322M lung
EKVX NSCLC = tested on: EKVX NSCLC
DU-145 prostate = tested on: DU-145 prostate
OVCAR-4 ovarian = tested on: OVCAR-4 ovarian
RXF 393 renal = tested on: RXF 393 renal
M14 melanoma = tested on: M14 melanoma
KM12 colon = tested on: KM12 colon
SR leukemia = tested on: SR leukemia
A498 renal = tested on: A498 renal
CCRF-CEM leukemia = tested on: CCRF-CEM leukemia
HCT-15 colon = tested on: HCT-15 colon
NCI-H226 lung = tested on: NCI-H226 lung
OVCAR-3 ovarian = tested on: OVCAR-3 ovarian
SK-MEL-28 melanoma = tested on: SK-MEL-28 melanoma
MCF7 breast = tested on: MCF7 breast
COLO 205 colon = tested on: COLO 205 colon
HOP-92 NSCLC = tested on: HOP-92 NSCLC
UO-31 renal = tested on: UO-31 renal
SN12C renal = tested on: SN12C renal
SK-MEL-5 melanoma = tested on: SK-MEL-5 melanoma
T-47D breast = tested on: T-47D breast
OVCAR-8 ovarian = tested on: OVCAR-8 ovarian
786-0 renal = tested on: 786-0 renal
ACHN renal = tested on: ACHN renal
IGROV1 ovarian = tested on: IGROV1 ovarian
UACC-62 melanoma = tested on: UACC-62 melanoma
BT-549 breast = tested on: BT-549 breast
HS 578T breast = tested on: HS 578T breast
MDA-MB-468 breast = tested on: MDA-MB-468 breast
SK-OV-3 ovarian = tested on: SK-OV-3 ovarian
NCI-H522 lung = tested on: NCI-H522 lung
LOX IMVI melanoma = tested on: LOX IMVI melanoma
NCI-H23 lung = tested on: NCI-H23 lung
HOP-62 NSCLC = tested on: HOP-62 NSCLC

Compound: C[C@@H]1COCCN1c1nc(-c2cnc(N)cc2C(F)F)nc(N2[C@H](C)COC[C@@H]2C)n1
- GI50 (MOLT-4 leukemia): 90.3 nM
- TGI (MOLT-4 leukemia): 508 nM
- GI50 (MDA-MB-231 breast): 61.4 nM
- TGI (MDA-MB-231 breast): 14400 nM
- GI50 (A549 NSCLC): 52.9 nM
- TGI (A549 NSCLC): 3890 nM
- GI50 (HL-60(TB) leukemia): 466 nM
- TGI (HL-60(TB) leukemia): 1660 nM
- GI50 (K-562 leukemia): 211 nM
- TGI (K-562 leukemia): 1780 nM
- GI50 (SW-620 colon): 319 nM
- TGI (SW-620 colon): 11500 nM
- GI50 (OVCAR-5 ovarian): 141 nM
- TGI (OVCAR-5 ovarian): 2280 nM
- GI50 (SF-295 CNS): 41.4 nM
- TGI (SF-295 CNS): 369 nM
- GI50 (MALME-3M melanoma): 27.1 nM
- TGI (MALME-3M melanoma): 218 nM
- GI50 (CAKI-1 renal): 123 nM
- TGI (CAKI-1 renal): 4840 nM
- GI50 (PC-3 prostate): 84.5 nM
- TGI (PC-3 prostate): 1960 nM
- GI50 (HCC-2998 colon): 104 nM
- TGI (HCC-2998 colon): 1610 nM
- GI50 (NCI-H460 NSCLC): 38.2 nM
- TGI (NCI-H460 NSCLC): 1510 nM
- GI50 (HT29 colon): 281 nM
- TGI (HT29 colon): 2440 nM
- GI50 (SF-539 CNS): 116 nM
- TGI (SF-539 CNS): 2450 nM
- GI50 (SNB-75 CNS): 54.9 nM
- TGI (SNB-75 CNS): 2100 nM
- GI50 (UACC-257 melanoma): 316 nM
- TGI (UACC-257 melanoma): 1560 nM
- GI50 (TK-10 renal): 232 nM
- TGI (TK-10 renal): 4550 nM
- GI50 (SF-268 CNS): 228 nM
- TGI (SF-268 CNS): 7710 nM
- GI50 (SNB-19 CNS): 711 nM
- TGI (SNB-19 CNS): 16100 nM
- GI50 (RPMI-8226 leukemia): 16.6 nM
- TGI (RPMI-8226 leukemia): 48.5 nM
- GI50 (NCI/ADR-RES ovarian): 291 nM
- TGI (NCI/ADR-RES ovarian): 6440 nM
- GI50 (MDA-MB-435 melanoma): 208 nM
- TGI (MDA-MB-435 melanoma): 2570 nM
- GI50 (NCI-H322M lung): 95.7 nM
- TGI (NCI-H322M lung): 2970 nM
- GI50 (EKVX NSCLC): 122 nM
- TGI (EKVX NSCLC): 1080 nM
- GI50 (DU-145 prostate): 143 nM
- TGI (DU-145 prostate): 10400 nM
- GI50 (OVCAR-4 ovarian): 68.3 nM
- TGI (OVCAR-4 ovarian): 376 nM
- GI50 (RXF 393 renal): 73.2 nM
- TGI (RXF 393 renal): 4440 nM
- GI50 (M14 melanoma): 117 nM
- TGI (M14 melanoma): 1490 nM
- GI50 (KM12 colon): 144 nM
- TGI (KM12 colon): 3090 nM
- GI50 (SR leukemia): 32.1 nM
- TGI (SR leukemia): 131 nM
- GI50 (A498 renal): 23.1 nM
- TGI (A498 renal): 407 nM
- GI50 (CCRF-CEM leukemia): 106 nM
- TGI (CCRF-CEM leukemia): 1050 nM
- GI50 (HCT-15 colon): 59 nM
- TGI (HCT-15 colon): 1330 nM
- GI50 (NCI-H226 lung): 75.9 nM
- TGI (NCI-H226 lung): 656 nM
- GI50 (OVCAR-3 ovarian): 119 nM
- TGI (OVCAR-3 ovarian): 10400 nM
- GI50 (SK-MEL-28 melanoma): 121 nM
- TGI (SK-MEL-28 melanoma): 1170 nM
- GI50 (MCF7 breast): 36.6 nM
- TGI (MCF7 breast): 1360 nM
- GI50 (COLO 205 colon): 152 nM
- TGI (COLO 205 colon): 3480 nM
- GI50 (HOP-92 NSCLC): 84.9 nM
- TGI (HOP-92 NSCLC): 1570 nM
- GI50 (UO-31 renal): 290 nM
- TGI (UO-31 renal): 16300 nM
- GI50 (SN12C renal): 95.9 nM
- TGI (SN12C renal): 10900 nM
- GI50 (SK-MEL-5 melanoma): 53.8 nM
- TGI (SK-MEL-5 melanoma): 312 nM
- GI50 (T-47D breast): 18.7 nM
- TGI (T-47D breast): 156 nM
- GI50 (OVCAR-8 ovarian): 165 nM
- TGI (OVCAR-8 ovarian): 11600 nM
- GI50 ([…]-0 renal): 116 nM
- TGI (786-0 renal): 2780 nM
- GI50 (ACHN renal): 81.2 nM
- TGI (ACHN renal): 2550 nM
- GI50 (IGROV1 ovarian): 36 nM
- TGI (IGROV1 ovarian): 238 nM
- GI50 (UACC-62 melanoma): 114 nM
- TGI (UACC-62 melanoma): 899 nM
- GI50 (BT-549 breast): 97.7 nM
- TGI (BT-549 breast): 1140 nM
- GI50 (HS 578T breast): 40.5 nM
- TGI (HS 578T breast): 269 nM
- GI50 (MDA-MB-468 breast): 54 nM
- TGI (MDA-MB-468 breast): 236 nM
- GI50 (SK-OV-3 ovarian): 53.3 nM
- TGI (SK-OV-3 ovarian): 595 nM
- GI50 (NCI-H522 lung): 128 nM
- TGI (NCI-H522 lung): 1400 nM
- GI50 (LOX IMVI melanoma): 99 nM
- TGI (LOX IMVI melanoma): 1100 nM
- GI50 (NCI-H23 lung): 264 nM
- TGI (NCI-H23 lung): 2600 nM
- GI50 (HOP-62 NSCLC): 145 nM
- TGI (HOP-62 NSCLC): 4220 nM
